Laboratory results: PubChem BioAssay (NCI)
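Dose response: 5 concentrations. Exposure: 48 h. Format: 96-well plates. Endpoint: linear interpolation; highest concentration if not reached. Here, GI50 denotes the concentration required for 50% inhibition of growth. The concentration for full growth arrest is given as TGI.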

Legend:
Experiment in all cases: DTP human tumour cell line panel, 48 h
[1] = test system: HOP-92 NSCLC
[2] = test system: ACHN renal
[3] = test system: CCRF-CEM leukemia
[4] = test system: HL-60(TB) leukemia
[5] = test system: KM12 colon
[6] = test system: SF-295 CNS
[7] = test system: COLO 205 colon
[8] = test system: HOP-62 NSCLC
[9] = test system: MOLT-4 leukemia
[10] = test system: MCF7 breast
[11] = test system: RXF 393 renal

SMILES	TGI [1]	TGI [2]	TGI [3]	TGI [4]	TGI [5]	TGI [6]	TGI [7]	TGI [8]	TGI [9]	TGI [10]	TGI [11]	GI50 [1]	GI50 [2]	GI50 [3]	GI50 [4]	GI50 [5]	GI50 [6]	GI50 [9]
COc1ccc(/C=C2/C(=O)N(C(=O)c3ccc(Cl)cc3)N=C2C)cc1OC	> 100 µM	> 100 µM	> 100 µM	> 100 µM	> 100 µM	> 100 µM	> 100 µM	> 100 µM	–	–	–	–	–	–	–	–	–	–
Cc1ccc(S(=O)(=O)N/N=C2\C(=O)C3CC2C(Cl)C3Cl)cc1 (stereo not drawn)	> 100 µM	> 100 µM	> 100 µM	> 100 µM	–	> 100 µM	> 100 µM	> 100 µM	> 100 µM	–	–	–	–	–	–	–	–	–
CN(C(=O)C1=CCCCCC1)c1ccccc1I	–	> 100 µM	> 100 µM	> 100 µM	93.9 µM	> 100 µM	37.6 µM	> 100 µM	> 100 µM	> 100 µM	> 100 µM	–	–	–	–	–	–	–
COc1ccc2c(c1)c(Cc1c(C)n(C)c3ccc(OC)cc13)c(C)n2C	> 100 µM	> 100 µM	> 100 µM	> 100 µM	> 100 µM	> 100 µM	> 100 µM	> 100 µM	> 100 µM	–	> 100 µM	–	–	–	–	–	–	–
CC(SC1=CC(=O)c2c(Cl)ccc(O)c2C1=O)C(=O)O (stereo not drawn)	38.6 µM	–	> 100 µM	12.2 µM	38.3 µM	33.3 µM	45.1 µM	–	57.7 µM	–	–	–	–	–	–	–	–	–
CSc1nc(=S)[nH]c2n[nH]c(C)c12	–	–	> 100 µM	> 100 µM	> 100 µM	–	> 100 µM	–	> 100 µM	> 100 µM	> 100 µM	–	–	–	–	–	–	–
CC(C#N)Nc1ccc(Oc2ccc(C(C)(C)c3ccc(Oc4ccc(NC(C)C#N)cc4)cc3)cc2)cc1 (stereo not drawn)	> 100 µM	> 100 µM	–	–	> 100 µM	> 100 µM	> 100 µM	–	> 100 µM	> 100 µM	> 100 µM	–	–	–	–	–	–	–
O=C(Cc1ccccc1)N/N=C(/CCN1CCCC1)CC(c1ccccc1)c1c(O)c2ccccc2oc1=O (stereo not drawn)	> 100 µM	> 100 µM	> 100 µM	> 100 µM	> 100 µM	–	57.5 µM	–	> 100 µM	> 100 µM	–	–	–	–	–	–	–	–
C/C(C=O)=C1\C(O)C[C@]1(C)C1CC(C)(C)CC1O (stereo partly drawn)	> 100 µM	> 100 µM	> 100 µM	> 100 µM	> 100 µM	> 100 µM	> 100 µM	> 100 µM	> 100 µM	–	> 100 µM	–	–	–	–	–	–	–
COc1ccc(CCN2CCC(C#N)(c3ccc(OC)c(OC)c3)CC2)cc1OC	> 100 µM	> 100 µM	> 100 µM	> 100 µM	> 100 µM	> 100 µM	> 100 µM	> 100 µM	> 100 µM	–	> 100 µM	–	–	–	–	–	–	–
CCCCOC(=O)/C(CC(=O)C=C(C)C)=N\NS(=O)(=O)c1ccc(C)cc1	> 100 µM	> 100 µM	> 100 µM	> 100 µM	> 100 µM	> 100 µM	> 100 µM	> 100 µM	> 100 µM	–	> 100 µM	–	–	–	–	–	–	–
C1CSCC2(COC2)CS1	> 100 µM	> 100 µM	> 100 µM	–	> 100 µM	> 100 µM	> 100 µM	–	> 100 µM	> 100 µM	> 100 µM	–	–	–	–	–	–	–
O=C1/C(=C/c2cccc([N+](=O)[O-])c2)COc2ccccc21	> 72.8 µM	8.04 µM	–	5.59 µM	6.29 µM	> 94.5 µM	> 100 µM	> 30.4 µM	6.62 µM	–	12.8 µM	–	–	–	–	–	–	–
O=C1/C(=C/c2cccc([N+](=O)[O-])c2)CCCc2ccccc21	29.6 µM	26.6 µM	10.5 µM	21.6 µM	16.5 µM	27.7 µM	32.8 µM	29.3 µM	34 µM	15.3 µM	–	–	–	–	–	–	–	–
COc1ccc(/C=C/C(=O)NCC(NC(=O)/C=C/c2ccc(OC)c(OC)c2)C(=O)O)cc1OC (stereo not drawn)	0.74 µM	> 100 µM	> 100 µM	–	> 100 µM	> 100 µM	> 100 µM	> 100 µM	> 100 µM	> 100 µM	> 100 µM	–	–	–	–	–	–	–
Clc1cc(Cl)cc(N2N=C(c3cccc(Nc4ccncc4)c3)CC2c2ccccc2)c1 (stereo not drawn)	3.07 µM	3.89 µM	> 100 µM	5.2 µM	3.7 µM	3.08 µM	–	–	5.95 µM	–	–	1.49 µM	1.9 µM	2.92 µM	1.9 µM	1.86 µM	1.65 µM	2.29 µM
O=C(CCN(CCO)CCO)Nc1ccc2c(c1)C(=O)c1ccc(NC(=O)CCN(CCO)CCO)cc1C2=O	> 100 µM	> 100 µM	39.5 µM	45.7 µM	31.2 µM	> 100 µM	29.5 µM	98.3 µM	44.9 µM	–	79.4 µM	–	–	–	–	–	–	–
COc1ccc2c(OC)c3ccoc3nc2c1O	–	> 100 µM	> 100 µM	–	> 100 µM	> 100 µM	> 100 µM	> 100 µM	> 100 µM	–	–	–	–	–	–	–	–	–
CCCCCCC(N)(CCCCCC)C(=O)Nn1c(C)ccc1C	–	> 100 µM	> 100 µM	> 100 µM	> 100 µM	> 100 µM	> 100 µM	> 100 µM	> 100 µM	59.4 µM	> 100 µM	–	–	–	–	–	–	–
CCOC(=O)[C@H]1C[C@@H](C(=O)c2ccccc2)N2N=C(c3ccc(Br)cc3)C=C[C@H]12	–	> 100 µM	–	–	> 100 µM	> 100 µM	> 100 µM	> 100 µM	> 100 µM	> 100 µM	> 100 µM	–	–	–	–	–	–	–
N#CCCc1nc2ccc(Br)cc2c(=O)n1-c1ccc(O)c([N+](=O)[O-])c1	51.6 µM	> 100 µM	71.7 µM	41.9 µM	34.5 µM	47.8 µM	47.9 µM	> 100 µM	54.3 µM	–	32.4 µM	–	–	–	–	–	–	–
Cc1nc2ccccc2nc1NS(=O)(=O)c1ccc(N)cc1	> 100 µM	> 100 µM	> 100 µM	> 100 µM	> 100 µM	> 100 µM	> 100 µM	> 100 µM	> 100 µM	–	> 100 µM	–	–	–	–	–	–	–
